Source: US20100099732A1, “MEDICAMENTS USEFUL AS POTASSIUM CHANNEL MODULATORS” (NeuroSearch A/S, priority 2007, published 2010)

Target: T1, BK channels (Homo sapiens, UniProt Q12791)
T1 construct: expressed in transfected cells; host or cells: Xenopus laevis oocytes
Assay: BK channel opening activity, two-electrode voltage clamp in Xenopus laevis oocytes
Format: cell-based
Experimental: In this example the BK channel opening activity of a phenylcarbamoyl-methyl-indole derivative for use according to the invention, i.e. 5-Chloro-3-[(3-chloro-phenylcarbamoyl)-methyl]-1H-indole-2-carboxylic acid (herein designated Compound A), is determined using BK channels heterologously expressed in Xenopus laevis oocytes.
The electrical current through the BK channel is measured conventional two-electrode voltage clamp. BK current is activated by repeated step protocols. In brief, this protocol goes from a resting membrane potential of −40 mV lasting for 5 s to a depolarised step to +20 mV lasting for 1 s. The protocol was repeated continuously.
Having reached stable current level, Compound A (10 μM), was added. A marked increase in the current activated by depolarisation could be observed. The BK current activity returned to baseline after approximately 30-60 seconds of wash. In summary BK current was increased by 92±23% in the presence of 10 μM of compound A (n=3, SD value).

T1 sequence (Q12791 whole entry): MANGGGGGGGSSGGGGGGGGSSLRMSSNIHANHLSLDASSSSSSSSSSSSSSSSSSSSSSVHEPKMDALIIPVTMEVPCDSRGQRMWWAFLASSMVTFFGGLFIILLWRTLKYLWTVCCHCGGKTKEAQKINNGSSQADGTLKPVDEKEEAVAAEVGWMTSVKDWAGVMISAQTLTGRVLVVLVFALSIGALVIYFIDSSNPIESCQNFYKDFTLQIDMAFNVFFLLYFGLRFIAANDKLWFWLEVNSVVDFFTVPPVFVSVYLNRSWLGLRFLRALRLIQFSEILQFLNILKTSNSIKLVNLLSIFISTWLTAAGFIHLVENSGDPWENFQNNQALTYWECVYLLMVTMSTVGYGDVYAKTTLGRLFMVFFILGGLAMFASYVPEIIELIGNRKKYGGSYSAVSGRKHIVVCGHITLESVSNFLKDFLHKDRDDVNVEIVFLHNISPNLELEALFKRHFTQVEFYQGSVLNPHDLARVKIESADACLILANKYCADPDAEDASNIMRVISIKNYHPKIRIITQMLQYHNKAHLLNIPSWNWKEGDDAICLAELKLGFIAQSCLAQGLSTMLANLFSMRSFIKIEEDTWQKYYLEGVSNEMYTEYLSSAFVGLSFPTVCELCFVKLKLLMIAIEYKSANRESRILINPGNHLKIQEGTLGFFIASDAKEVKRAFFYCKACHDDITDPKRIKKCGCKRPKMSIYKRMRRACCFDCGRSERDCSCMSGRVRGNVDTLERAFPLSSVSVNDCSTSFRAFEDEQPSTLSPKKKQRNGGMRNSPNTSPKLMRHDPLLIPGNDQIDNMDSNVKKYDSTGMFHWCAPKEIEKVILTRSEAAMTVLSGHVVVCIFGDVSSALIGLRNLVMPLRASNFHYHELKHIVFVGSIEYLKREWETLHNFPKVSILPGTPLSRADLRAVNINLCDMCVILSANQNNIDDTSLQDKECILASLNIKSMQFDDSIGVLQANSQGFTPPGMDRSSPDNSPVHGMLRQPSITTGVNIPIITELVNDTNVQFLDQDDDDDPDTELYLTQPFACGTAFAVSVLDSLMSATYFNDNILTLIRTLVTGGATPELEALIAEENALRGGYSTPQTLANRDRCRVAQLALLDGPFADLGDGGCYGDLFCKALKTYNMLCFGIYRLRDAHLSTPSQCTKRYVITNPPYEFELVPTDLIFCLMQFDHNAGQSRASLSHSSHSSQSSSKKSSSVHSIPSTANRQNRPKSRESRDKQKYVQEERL

## O=C(Cc1c(C(=O)O)[nH]c2ccc(Cl)cc12)Nc1cccc(Cl)c1 [Compound A, 5-Chloro-3-[(3-chloro-phenylcarbamoyl)-methyl]-1H-indole-2-carboxylic acid]
10 μM compound, BK channels heterologously expressed in Xenopus laevis oocytes, depolarising step to +20 mV, n=3, SD value
  BK current increase: 92±23%
Wash after 10 μM compound, Xenopus laevis oocytes
  BK current activity return to baseline after wash: 30 to 60 s
